# Results from EPA's ToxValDB 9.5.
# Values joined by “and” are separate entries in the source; they are usually repeats but may differ in a detail not shown here. Equal values may be shown once.
# Legend:
# Rattus norvegicus [1] = conditions: repeat dose other; oral
# Rattus norvegicus [2] = conditions: oral
# Rattus norvegicus [3] = conditions: oral, M/F
# Mus musculus = conditions: subchronic, duration: 13 weeks, oral, B6C3F1
# Rattus norvegicus [4] = conditions: for LC50: acute, inhalation; for LOAEL / NOAEL: subchronic, oral
# Oryctolagus sp. = conditions: acute; dermal; occlusive
# Rattus norvegicus [5] = conditions: subchronic; duration: 13 weeks; oral; water; M/F; Fischer 344; Deaths + Body Weight Changes: decrease + Food Consumption: decrease + Hematology: RBC decrease, Hct decrease, Hgb decrease, Plt increase + …
# [6] = reproduction developmental, reduced offspring body weight
# [7] = chronic, duration: 2 years, diet, lungs, liver, kidney, thyroid and thyroid hormones
# [8] = duration: 13 weeks, drinking water, Fischer 344
# [9] = duration: 13 weeks, drinking water, Wistar
# [10] = duration: 89 days, gavage, Sprague-Dawley
# [11] = subchronic, duration: 90 days, gavage, increased liver weight
compound,measurement,setting,value
[O-2].[Zn+2] [Zinc oxide],LOAEL,Rattus norvegicus [1],320 mg/kg-day
same,NOAEL,Rattus norvegicus [1],160 mg/kg-day
O=C1CCCCCN1 [Caprolactam],NOAEL,"Rattus norvegicus [2]; subchronic, duration: 90 days, diet, Kidney: Effects",50 mg/kg-day
same,LOAEL,Rattus norvegicus [3]; [6],250 mg/kg-day
same,NOAEL,Rattus norvegicus [3]; [6],50 mg/kg-day
COC(=O)c1c(Cl)c(Cl)c(C(=O)OC)c(Cl)c1Cl [Chlorthal-dimethyl],NOAEL,"Rattus norvegicus [2]; chronic, duration: 2 years, diet, Kidney: Effects + Liver: Effects + Lung: Effects + Thyroid hormones: Effects + Thyroid: Effects",1 mg/kg-day
same,LOAEL,Rattus norvegicus [3]; [7],10 mg/kg-day
same,NOAEL,Rattus norvegicus [3]; [7],1 mg/kg-day
c1ccncc1 [Pyridine],LOAEL,Mus musculus; drinking water,26.5 mg/kg-day
same,NOAEL,Mus musculus; drinking water,13.2 mg/kg-day
same,LOAEL,Mus musculus; gavage,25 mg/kg-day
same,LC50,Rattus norvegicus [4],< 12900 mg/m3
same,LC50,Rattus norvegicus [4]; Crl:CD(SD) BR,≥ 15900 mg/m3 and ≤ 19400 mg/m3
same,LC50,Rattus norvegicus [4]; Sprague-Dawley,29200 mg/m3 and 29100 mg/m3
same,LOAEL,Rattus norvegicus [4]; [8],38 mg/kg-day
same,NOAEL,Rattus norvegicus [4]; [8],15.2 mg/kg-day
same,LOAEL,Rattus norvegicus [4]; [9],38 mg/kg-day
same,NOAEL,Rattus norvegicus [4]; [9],15.2 mg/kg-day
same,LOAEL,"Rattus norvegicus [4]; duration: 13 weeks, gavage, Fischer 344",12.5 mg/kg-day
same,LOAEL,Rattus norvegicus [4]; [10],10 mg/kg-day
same,NOAEL,Rattus norvegicus [4]; [10],1 mg/kg-day
same,LD50,Oryctolagus sp.,≥ 1000 mg/kg and ≤ 2000 mg/kg
same,NOAEL,"Rattus norvegicus [2]; subchronic, duration: 90 days, gavage, Liver: Increased relative weight + Liver: Increased weight",1 mg/kg-day
same,LOAEL,Rattus norvegicus [3]; [11],10 mg/kg-day
same,NOAEL,Rattus norvegicus [3]; [11],1 mg/kg-day
same,NOEL,Rattus norvegicus [5],< 7.6 mg/kg-day
